According to US20110200618A1, “ERBB4 INHIBITORS AND USES THEREOF IN TREATMENT OF NEUROPSYCHIATRIC DISORDERS” (priority 2008, published 2011):

Columns and labels:
Format in all cases: cell-based
[1] = system: NRG1 induced ERK activation; assay: NRG1 induced ERK activation in human olfactory epithelial (hOE) cultures, western blot; details: healthy person, inhibitors 20 min, then 100 ng/ml NRG1 10 min, 10 μM U0126, 10 nM wortmannin, 100 nM K-252, 2.5 μM AG1478, 1 μM AG879
Method: Protein extracts were analyzed for the expression of p-ERK and glyeraldehyde 3-dehydrogenase (GAPDH). U, 10 μM of U0126: W, 10 nM of wortmannin: K, 100 nM K-252, 2.5 μM of AG1478 and 1 μM of AG879;
Protein extracts were analyzed for the expression of p-ERK and glyceraldehyde 3-dehydrogenase (GAPDH). (A) A representative western blotting (B) p-ERK intensities were normalized with respect to GAPDH, which were then used to calculate percent inhibition.
As an internal control experiment, the cells were also incubated with inhibitors for ERK, AKT or trkb activation, U0126, wortmannin or K-252 respectively.

activation of AKT = assay: NRG1 stimulation of post-mortem mouse brain tissues after 60 min pre-incubation, AKT activation; details: post-mortem mouse brain tissue slices, GSK compound at 10 μM, 100 ng/ml NRG1
[2] = system: NRG1 induced ERK activation; assay: NRG1 stimulation of post-mortem human prefrontal cortex tissues, ERK activation; details: post-mortem PFC of healthy control; 2.5 μM AG1478 pre-incubated 15 min, 100 ng/ml NRG1
Method: NRG1 stimulation of human post-mortem PFC. 100 mg of post-mortem brain tissues of a healthy control subject were incubated with or without 100 ng/ml of NRG1 in the presence or absence of 2.5 μM AG1478. Protein extracts were analyzed for p-ERK and ERK;
Protein extracts were analyzed for the expression of ERK, AKT and GSK and their phosphorylated counterparts;
erbB stimulation/inhibition experiment wastested in post-mortem brain tissues. FIG. 2 represents an experiment, in which the PFC of a healthy control subject was stimulated with NRG1 in the presence of AG1478. In this experiment, the tissues were incubated with the inhibitor for 15 min before added with 100 ng/ml of NRG1.
GSK1495829A was tested in post-mortem mouse and human brain tissues. FIG. 4 represents an experiment, in which the PFC tissues of a healthy control subject were pre-incubated with varied concentrations of the inhibitor for 15 min before the ligand stimulation with 100 ng/ml of NRG1. […] One possible explanation could be that the brain tissues are less permeable to the inhibitors than OE culture cells.

activation of ERK = assay: NRG1 stimulation of post-mortem mouse brain tissues after 60 min pre-incubation, ERK activation; details: post-mortem mouse brain tissue slices, GSK compound at 10 μM, 100 ng/ml NRG1, vehicle control also failed to respond to NRG1
Method: Protein extracts were analyzed for the expression of p-ERK;
To enhance the permeability of the inhibitors, tissue slices were pre-incubated with the inhibitors for 60 min before added with NRG1.

| Compound | NRG1 induced p-ERK with respect to GAPDH [1] | activation of AKT (activation of AKT) | NRG1 induced ERK activation (ratio p-ERK to ERK) [2] | activation of ERK (activation of ERK) |
| --- | --- | --- | --- | --- |
| CC(C)(C)c1cc(C=C(C#N)C(N)=S)cc(C(C)(C)C)c1O [AG 879, α-Cyano-(3,5-di-t-butyl-4-hydroxy)thiocinnamide] | attenuated | – | – | – |
| COc1cc2ncnc(Nc3cccc(Cl)c3)c2cc1OC [AG 1478, 4-(3-Chloroanilino)-6,7-dimethoxyquinazoline] | attenuated | did not reduce | significantly reduced | did not reduce |
| N#CC(=C(/N)Sc1ccccc1N)/C(C#N)=C(\N)Sc1ccccc1N [U0126] | significantly reduced | – | – | – |
